This note sets out measurements from US20250066350A1, “AROMATIC HETEROCYCLE-SUBSTITUTED COMPOUNDS, AND PREPARATION METHOD THEREFOR AND USE THEREOF” (Innovstone Therapeutics Limited, priority 2021, published 2025).

Read-outs that look alike come from different tables or passages of the source.

The target of assay [1] is ATR enzyme (Homo sapiens (Human), UniProt Q13535). Briefly: Inhibitory effect on ATR enzyme (HTRF, phospho-P53). Type of assay: biochemical. The settings on record: 90 minutes incubation, 150 nM ATP final; read-out: IC50 for ATR enzyme inhibition. The procedure:
Test Example 1. Inhibitory Effect of Compounds of the Present Invention on ATR Enzyme
The following method is used to determine the inhibitory effect of the compounds of the present invention on the ATR enzyme. The experimental method is briefly described as follows:
1. ATR enzyme (Eurofins Pharma Discovery Services, 14-953M)
2. GST-tagged P53 protein (Eurofins Pharma Discovery Services, 14-952M)
15 nM ATR enzyme, 80 nM P53 protein, 300 nM ATP (the final concentrations were 40 nM and 150 nM, respectively), and small molecule compounds of various concentrations (the final concentrations (nM) of the ten points were 2985.0, 895.5, 298.5, 110.56, 33.17, 11.06, 4.09, 1.23, 0.41 and 0.15, respectively, and the final dimethyl sulfoxide concentration was 0.498%) were mixed and incubated at room temperature for 90 minutes. 10 μL of 2× cocktail buffer was added to the mixture of ATR, compound and substrate in the assay plate (anti-phospho-p53-Eu and anti-GST-d2 were diluted in the assay buffer). The resulting mixture was centrifuged at 1000 rpm for 30 seconds, and incubated overnight at 4° C. in the dark (a total of 20 μl in each well). The FRET signal (endpoint) was measured in the Envision instrument (HTRF 665/612 ratio was calculated at 665 nm emission and 612 nm emission). Data were processed using GraphPad software.
The inhibitory activity of the compounds of the present invention on the ATR enzyme can be determined by the test described above, and the measured IC50 values are shown in Table 1.
In general terms: Time-resolved FRET reads energy transfer from a long-lived donor to a nearby acceptor.

The subject of assay [2] is SNU-601 cells. In words: SNU-601 cell proliferation experiment (CellTiter-Glo, intracellular ATP). Format: cell-based. The conditions noted are these: SNU-601 human gastric cancer cells, 5 days, read-out: IC50 for inhibition of SNU-601 cell proliferation. Here is the method: The following method is used to evaluate the inhibitory effect of the compounds of the present disclosure on SNU-601 cell proliferation according to the IC50 values by means of detecting the intracellular ATP content. The experimental method is briefly described as follows:
1. SNU-601, human gastric cancer tumor cells (Co-bioer, CBP60507)
SNU-601 cells were cultured in RPMI 1640 medium containing 10% FBS and passaged 2 to 3 times a week at a split ratio of 1:5 or 1:10. During passage, the cells were trypsinized and transferred to a centrifuge tube. The tube was centrifuged at 1000 rpm for 5 minutes, the supernatant medium was discarded, and fresh medium was added to resuspend the cells. 195 μL of cell suspension at a density of 5.128×10^3 cells/mL was added to a 96-well cell culture plate, and 200 μL of complete medium only was added to the periphery wells of the 96-well plate. The culture plate was incubated in an incubator for 24 hours (37° C., 5% CO2).
The sample to be tested was diluted to 2 mM with DMSO, diluted 3-fold serially to 10 concentrations. Blank and control wells were set. 10 μL of the solution containing the compound to be tested prepared in gradient concentrations was added to 50 μL of fresh medium. 5 μL of the above culture medium solution containing the compound was added to the culture plate. The culture plate was incubated in an incubator for 5 days (37° C., 5% CO2). 50 μL of CellTiter-Glo reagent was added to each well of the 96-well cell culture plate after discarding 100 μL/well, and the plate was shaken at room temperature in the dark for 10 min. The chemiluminescent signal values were read in PHERAstar, and data were processed using GraphPad software.
The inhibitory effect of the compounds of the present invention on SNU-601 cell proliferation can be determined by the test described above, and the measured IC50 values are shown in Table 3.
For orientation: In ATP-based viability assays light output follows the ATP content of the culture.

ATR enzyme, sequence (Q13535 whole entry): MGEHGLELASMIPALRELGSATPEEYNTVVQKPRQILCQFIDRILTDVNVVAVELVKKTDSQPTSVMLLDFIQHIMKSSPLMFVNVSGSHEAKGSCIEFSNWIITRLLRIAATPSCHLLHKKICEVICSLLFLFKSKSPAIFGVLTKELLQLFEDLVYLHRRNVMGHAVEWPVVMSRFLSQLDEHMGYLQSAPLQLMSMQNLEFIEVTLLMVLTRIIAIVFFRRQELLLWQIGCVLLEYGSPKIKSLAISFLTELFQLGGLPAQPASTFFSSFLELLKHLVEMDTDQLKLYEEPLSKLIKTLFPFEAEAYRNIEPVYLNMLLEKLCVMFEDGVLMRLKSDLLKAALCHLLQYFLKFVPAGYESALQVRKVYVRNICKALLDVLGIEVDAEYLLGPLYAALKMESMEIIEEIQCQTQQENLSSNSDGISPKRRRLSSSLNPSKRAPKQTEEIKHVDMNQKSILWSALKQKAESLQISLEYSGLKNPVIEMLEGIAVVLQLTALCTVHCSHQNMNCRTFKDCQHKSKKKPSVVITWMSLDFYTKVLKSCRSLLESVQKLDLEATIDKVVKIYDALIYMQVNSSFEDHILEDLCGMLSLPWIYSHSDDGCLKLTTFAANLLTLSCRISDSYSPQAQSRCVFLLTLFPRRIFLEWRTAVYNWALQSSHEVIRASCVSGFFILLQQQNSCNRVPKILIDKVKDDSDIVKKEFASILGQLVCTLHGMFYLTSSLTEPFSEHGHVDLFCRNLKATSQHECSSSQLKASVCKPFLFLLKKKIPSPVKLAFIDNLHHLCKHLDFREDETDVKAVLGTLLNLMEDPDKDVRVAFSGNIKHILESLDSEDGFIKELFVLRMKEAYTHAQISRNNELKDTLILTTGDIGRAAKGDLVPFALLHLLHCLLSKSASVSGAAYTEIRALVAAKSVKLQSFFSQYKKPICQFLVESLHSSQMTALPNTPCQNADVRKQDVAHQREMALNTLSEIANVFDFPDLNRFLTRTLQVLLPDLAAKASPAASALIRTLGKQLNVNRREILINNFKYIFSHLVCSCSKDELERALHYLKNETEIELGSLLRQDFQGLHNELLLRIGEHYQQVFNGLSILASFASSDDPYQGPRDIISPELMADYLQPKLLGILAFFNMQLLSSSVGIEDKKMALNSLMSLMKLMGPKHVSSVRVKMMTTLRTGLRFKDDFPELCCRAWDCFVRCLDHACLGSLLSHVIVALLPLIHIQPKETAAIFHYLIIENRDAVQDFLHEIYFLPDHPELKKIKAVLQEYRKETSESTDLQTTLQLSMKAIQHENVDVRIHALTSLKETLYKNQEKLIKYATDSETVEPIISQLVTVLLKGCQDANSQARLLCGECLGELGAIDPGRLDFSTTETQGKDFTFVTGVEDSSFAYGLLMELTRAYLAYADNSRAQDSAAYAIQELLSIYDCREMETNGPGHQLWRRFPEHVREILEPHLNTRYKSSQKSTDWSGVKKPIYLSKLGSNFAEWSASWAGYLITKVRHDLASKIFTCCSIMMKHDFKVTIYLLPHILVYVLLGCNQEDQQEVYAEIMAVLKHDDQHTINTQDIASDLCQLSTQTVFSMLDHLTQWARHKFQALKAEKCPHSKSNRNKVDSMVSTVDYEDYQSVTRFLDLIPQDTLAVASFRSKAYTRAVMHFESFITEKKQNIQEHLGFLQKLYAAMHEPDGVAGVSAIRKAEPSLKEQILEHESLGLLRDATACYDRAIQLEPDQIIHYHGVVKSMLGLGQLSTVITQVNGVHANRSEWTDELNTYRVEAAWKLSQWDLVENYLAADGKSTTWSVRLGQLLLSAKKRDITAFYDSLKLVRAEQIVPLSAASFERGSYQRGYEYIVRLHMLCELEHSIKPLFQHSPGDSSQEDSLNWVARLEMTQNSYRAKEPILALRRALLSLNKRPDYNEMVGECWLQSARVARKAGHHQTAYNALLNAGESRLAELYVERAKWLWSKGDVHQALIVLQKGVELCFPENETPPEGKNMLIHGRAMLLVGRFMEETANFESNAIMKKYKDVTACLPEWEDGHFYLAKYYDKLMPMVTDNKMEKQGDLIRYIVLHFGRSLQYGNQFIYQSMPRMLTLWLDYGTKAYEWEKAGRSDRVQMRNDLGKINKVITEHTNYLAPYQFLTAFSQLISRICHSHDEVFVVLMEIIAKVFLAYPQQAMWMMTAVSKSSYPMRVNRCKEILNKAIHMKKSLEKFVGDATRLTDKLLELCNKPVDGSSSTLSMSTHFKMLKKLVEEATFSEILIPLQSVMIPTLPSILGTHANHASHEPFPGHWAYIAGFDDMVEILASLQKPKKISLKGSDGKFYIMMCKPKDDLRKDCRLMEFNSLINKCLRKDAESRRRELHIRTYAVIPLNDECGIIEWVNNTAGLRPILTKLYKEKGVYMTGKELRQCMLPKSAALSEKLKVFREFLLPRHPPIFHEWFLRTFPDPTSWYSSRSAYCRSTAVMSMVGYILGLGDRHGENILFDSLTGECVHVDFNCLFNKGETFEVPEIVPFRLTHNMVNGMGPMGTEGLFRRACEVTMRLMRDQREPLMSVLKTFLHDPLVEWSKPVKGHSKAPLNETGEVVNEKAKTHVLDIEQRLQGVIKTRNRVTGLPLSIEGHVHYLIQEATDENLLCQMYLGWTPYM
ATR enzyme, sequence (Q8WXE1 whole entry partner): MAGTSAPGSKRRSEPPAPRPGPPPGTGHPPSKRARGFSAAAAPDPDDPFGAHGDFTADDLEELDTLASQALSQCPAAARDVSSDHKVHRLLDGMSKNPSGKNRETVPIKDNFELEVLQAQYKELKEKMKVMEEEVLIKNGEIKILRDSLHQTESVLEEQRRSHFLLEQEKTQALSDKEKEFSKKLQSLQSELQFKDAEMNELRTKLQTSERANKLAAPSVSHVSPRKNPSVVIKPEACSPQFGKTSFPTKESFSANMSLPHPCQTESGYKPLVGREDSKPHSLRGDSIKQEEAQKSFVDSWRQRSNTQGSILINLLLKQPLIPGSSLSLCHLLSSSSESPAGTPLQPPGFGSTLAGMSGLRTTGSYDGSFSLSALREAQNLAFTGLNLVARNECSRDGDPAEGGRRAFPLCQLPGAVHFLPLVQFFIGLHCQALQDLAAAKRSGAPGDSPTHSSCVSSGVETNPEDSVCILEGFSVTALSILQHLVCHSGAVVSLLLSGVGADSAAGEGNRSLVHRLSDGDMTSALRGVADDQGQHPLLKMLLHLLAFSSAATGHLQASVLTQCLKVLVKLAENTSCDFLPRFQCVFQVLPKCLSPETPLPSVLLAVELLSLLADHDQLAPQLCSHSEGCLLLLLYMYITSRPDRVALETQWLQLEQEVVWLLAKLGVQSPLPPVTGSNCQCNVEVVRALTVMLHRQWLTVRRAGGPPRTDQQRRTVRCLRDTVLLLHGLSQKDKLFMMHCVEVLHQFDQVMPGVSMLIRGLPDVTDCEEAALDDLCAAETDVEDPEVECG

On to `CC(=O)Nc1ccc(-c2cc(N3CCOC[C@H]3C)nc3c2cnn3-c2cc[nH]n2)cc1` [Example 30, (R)-N-(4-(6-(3-methylmorpholinyl)-1-(1H-pyrazolyl-3-yl)-1H-pyrazolyl[3,4-b]pyridin-4-yl)phenyl)acetamide], for which the IC50 in assay [1] is not above 10 nM; in assay [2] (120 h), 10 to 100 nM. The corresponding values for `CC(=O)C(=O)Nc1ccc(-c2cc(N3CCOC[C@H]3C)nc3c2cnn3-c2cc[nH]n2)cc1` [Example 31, (R)-N-(4-(6-(3-methylmorpholino)-1-(1H-pyrazol-3-yl)-1H-pyrazolo[3,4-b]pyridin-4-yl)phenyl)-2-oxopropanamide] are not above 10 nM and 10 to 100 nM. The like results for `C[C@@H]1COCCN1c1cc(-c2ccc(NC(=O)C3CCC3)cc2)c2cnn(-c3cc[nH]n3)c2n1` [Example 32, (R)-N-(4-(6-(3-methylmorpholinyl)-1-(1H-pyrazolyl-3-yl)-1H-pyrazolyl[3,4-b]pyridin-4-yl)phenyl)cyclobutanecarboxamide] were, in that order, not above 10 nM and 10 to 100 nM. The like results for `C[C@@H]1COCCN1c1cc(-c2ccc(NC(=O)NC3CC3)cc2)c2cnn(-c3cc[nH]n3)c2n1` [Example 33, (R)-1-cyclopropyl-3-(4-(6-(3-methylmorpholinyl)-1-(1H-pyrazolyl-3-yl)-1H-pyrazolyl[3,4-b]pyridin-4-yl)phenyl)urea] were, in that order, not above 10 nM and 10 to 100 nM.

As to `C[C@@H]1COCCN1c1cc(-c2cccc(N3CCCC3=O)c2)c2cnn(-c3cc[nH]n3)c2n1` [Example 58], the results for the IC50 in assay [1] and in assay [2] were not above 10 nM and 10 to 100 nM, respectively. In the case of `C[C@@H]1COCCN1c1cc(-c2ccc(N3CCCC3=O)cc2F)c2cnn(-c3cc[nH]n3)c2n1` [Example 59, (R)-1-(3-fluoro-4-(6-(3-methylmorpholino)-1-(1H-pyrazol-3-yl)-1H-pyrazolo[3,4-b]pyridin-4-yl)phenyl)pyrrolidin-2-one], the IC50 in assay [1] and in assay [2] (120 h) was not above 10 nM in each case.

On to `C[C@@H]1COCCN1c1cc(-c2ccc(N3CCCN(C)C3=O)cc2)c2cnn(-c3cc[nH]n3)c2n1` [Example 62], for which the IC50 is not above 10 nM in assay [1] and 10 to 100 nM in assay [2]. Turning to `C[C@@H]1COCCN1c1cc(-c2ccc(N3CCCNC3=O)cc2)c2cnn(-c3cc[nH]n3)c2n1` [Example 146], the IC50 in assay [1] is not above 10 nM; in assay [2] it was 10 to 100 nM. Consider `CC(=O)Nc1cccc(-c2cc(N3CCOC[C@H]3C)nc3c2cnn3-c2cc[nH]n2)c1` [Example 149], for which the IC50 is not above 10 nM in assay [1] and 10 to 100 nM in assay [2] (120 h). `CCC(=O)Nc1ccc(-c2cc(N3CCOC[C@H]3C)nc3c2cnn3-c2cc[nH]n2)cc1` [Example 150]: the IC50 in assay [1] is not above 10 nM; in assay [2], 10 to 100 nM. The like results for `C[C@@H]1COCCN1c1cc(-c2ccc(NC(=O)C3CCOC3)cc2)c2cnn(-c3cc[nH]n3)c2n1` (some centres unmarked) [Example 154] were, in that order, not above 10 nM and 10 to 100 nM. Take `C[C@@H]1COCCN1c1cc(-c2ccc(NC(=O)C3CC(N)C3)cc2)c2cnn(-c3cc[nH]n3)c2n1` (some centres unmarked) [Example 158]: the IC50 was not above 10 nM in assay [1] and 10 to 100 nM in assay [2]. On to `C[C@@H]1COCCN1c1cc(-c2ccc(NC(=O)C3CC(O)C3)cc2)c2cnn(-c3cc[nH]n3)c2n1` (some centres unmarked) [Example 160], for which the IC50 in assay [1] is not above 10 nM; in assay [2] it was 10 to 100 nM. The corresponding values for `CC(=O)N1CCCC(C(=O)Nc2ccc(-c3cc(N4CCOC[C@H]4C)nc4c3cnn4-c3cc[nH]n3)cc2)C1` (some centres unmarked) [Example 162] are not above 10 nM and 10 to 100 nM.

Turning to `Cc1cc(N2CCCCC2=O)ccc1-c1cc(N2CCOC[C@H]2C)nc2c1cnn2-c1cc[nH]n1` [Example 168], the IC50 in assay [1] was not above 10 nM; in assay [2] it was 10 to 100 nM. In the case of `C[C@@H]1COCCN1c1cc(-c2ccc(N3CCCCC3=O)c(C#N)c2)c2cnn(-c3cc[nH]n3)c2n1` [Example 169], the IC50 in assay [2] (120 h) was in the range of 10 to 100 nM.

In the case of `C[C@@H]1COCCN1c1cc(-c2ccc(NC(=O)c3cccs3)cc2)c2cnn(-c3cc[nH]n3)c2n1` [Example 172], the IC50 in assay [1] is not above 10 nM; in assay [2] it was 10 to 100 nM. On to `C[C@@H]1COCCN1c1cc(-c2ccc3c(c2)CCN3C(=O)c2ccncc2)c2cnn(-c3cc[nH]n3)c2n1` [Example 183], for which, in assay [2] (120 h), the IC50 lay within 10 to 100 nM. Same read-out and setting: next, `C[C@@H]1COCCN1c1cc(-c2ccc(N3CCCCC3=O)c(F)c2)c2cnn(-c3cc[nH]n3)c2n1` [Example 191]: 10 to 100 nM; `C[C@@H]1COCCN1c1cc(-c2ccc(NC(=O)c3cccnc3)cc2F)c2cnn(-c3cc[nH]n3)c2n1` [Example 195]: 10 to 100 nM; `C[C@@H]1COCCN1c1cc(-c2ccc(N3CC4CCC(O4)C3=O)cc2F)c2cnn(-c3cc[nH]n3)c2n1` (some centres unmarked) [Example 199]: 10 to 100 nM. As for `C[C@@H]1COCCN1c1cc(-c2ccc(N3CC4CCC(O4)C3=O)c(F)c2)c2cnn(-c3cc[nH]n3)c2n1` (stereo partly drawn) [Example 200, 3-(2-fluoro-4-(6-((R)-3-methylmorpholino)-1-(1H-pyrazol-3-yl)-1H-pyrazolo[3,4-b]pyridin-4-yl)phenyl)-8-oxa-3-azabicyclo[3.2.1]octan-2-one], the IC50 in assay [1] was not above 10 nM; in assay [2] (120 h) it was 10 to 100 nM. Regarding `C[C@@H]1COCCN1c1cc(-c2ccc(NC(=O)N3CCCC3)cc2)c2cnn(-c3cc[nH]n3)c2n1` [Example 207], the IC50 in assay [2] (120 h) fell in the range of 10 to 100 nM. With `C[C@@H]1COCCN1c1cc(C2(C#N)CCN(c3cccc(F)c3)CC2)c2cnn(-c3cc[nH]n3)c2n1` [Example 208], the IC50 in assay [1] was not above 10 nM; in assay [2] it was 10 to 100 nM. With `C[C@@H]1COCCN1c1cc(C#CC2CCCNC2)c2cnn(-c3ccn[nH]3)c2n1` (some centres unmarked) [Example 209], the IC50 in assay [2] (120 h) was in the range of 10 to 100 nM.

As for `C[C@@H]1COCCN1c1cc(-c2ccc(NC(=O)C3CCN(C)C3)cc2)c2cnn(-c3cc[nH]n3)c2n1` (some centres unmarked) [Example 213], the IC50 in assay [2] (120 h) lay within 10 to 100 nM. For `C[C@@H]1COCCN1c1cc(-c2ccc(NC(=O)c3cccnc3)cc2)c2cnn(-c3cc[nH]n3)c2n1` [Example 214], the IC50 in assay [1] was not above 10 nM; in assay [2], 10 to 100 nM.

With `CNC(=O)N(C)c1ccc(-c2cc(N3CCOC[C@H]3C)nc3c2cnn3-c2cc[nH]n2)cc1` [Example 215], the IC50 in assay [2] (120 h) was in the range of 10 to 100 nM.

For the compound `CCN1CCN(c2ccc(-c3cc(N4CCOC[C@H]4C)nc4c3cnn4-c3cc[nH]n3)cc2)C1=O` [Example 216], the results for the IC50 in assay [1] and in assay [2] were not above 10 nM and 10 to 100 nM, respectively. For `C[C@@H]1COCCN1c1cc(-c2ccc(NC(=O)C(F)F)cc2)c2cnn(-c3cc[nH]n3)c2n1` [Example 217], the IC50 in assay [2] (120 h) was in the range of 10 to 100 nM. Turning to `C[C@@H]1COCCN1c1cc(-c2ccc(NC(=O)C3CC3)cc2)c2cnn(-c3cc[nH]n3)c2n1` [Example 218], the IC50 is not above 10 nM in assay [1] and 10 to 100 nM in assay [2] (120 h). In the case of `C[C@@H]1COCCN1c1cc(-c2ccc(NC(=O)N3CCNCC3)cc2)c2cnn(-c3cc[nH]n3)c2n1` [Example 219], the IC50 in assay [1] was not above 10 nM; in assay [2] (120 h), 10 to 100 nM. Regarding `CCn1ccn(-c2ccc(-c3cc(N4CCOC[C@H]4C)nc4c3cnn4-c3cc[nH]n3)cc2)c1=O` [Example 222], the IC50 in assay [1] is not above 10 nM; in assay [2] (120 h), 10 to 100 nM. `C[C@@H]1COCCN1c1cc(-c2ccc(N3CCCCC3=O)cc2C(F)(F)F)c2cnn(-c3cc[nH]n3)c2n1` [Example 242]: in assay [2] (120 h), the IC50 fell in the range of 10 to 100 nM. Still for that read-out and setting: next, `C[C@@H]1COCCN1c1cc(-c2ccc(-c3ccnn3C)cc2F)c2cnn(-c3cc[nH]n3)c2n1` [Example 258]: 10 to 100 nM. Still for that read-out and setting: next, `C[C@@H]1COCCN1c1cc(-c2cc(C#N)c(N3CCCCC3=O)cc2F)c2cnn(-c3cc[nH]n3)c2n1` [Example 259]: 10 to 100 nM.
